Laboratory results: patent publication US10329303B2, “Heterocyclic inhibitors of monocarboxylate transporter” (THE SCRIPPS RESEARCH INSTITUTE, priority 2015, dated 2019)

System: Raji (Burkitt's) lymphoma cells
Assay: MTT assay for 4-day viability of Raji (Burkitt's) lymphoma cells
Assay type: cell-based
Conditions: Homo sapiens, 96 h, Raji cells (highly express MCT1), read-out: approximate potency (EC50)
Description: Specific Examples 1-52 of compounds of the invention, with estimated EC50 values determined using an MTT assay for 4-day viability of Raji (Burkitt's) lymphoma cells, a cell line known to highly express MCT1 and to be sensitive to small molecule MCT inhibitors,^4 are shown in Table 2. Assay protocols follow those described in the literature.^4 Other assays that are not described here but that are standard in the field, such as an assay for competitive inhibition of transport of radiolabeled lactic acid, an MCT substrate, may also be useful in establishing mechanism of action of these compounds.

Row | EC50 [nM] | SMILES
1 | 100 | CC(C)Cc1nn(C)c(=O)c2c(-c3cccc(CO)c3)n(Cc3cccc4ccccc34)cc12 [Example 31, 7-(3-(hydroxymethyl)phenyl)-4-isobutyl-2-methyl-6-(naphthalen-1-ylmethyl)-2,6-dihydro-1H-pyrrolo[3,4-d]pyridazin-1-one]
2 | 900 | CC(C)Cc1nn(C)c(=O)c2c(-c3cncc(CO)c3)n(Cc3cccc4ccccc34)cc12 [Example 32, 7-(5-(hydroxymethyl)pyridin-3-yl)-4-isobutyl-2-methyl-6-(naphthalen-1-ylmethyl)-2,6-dihydro-1H-pyrrolo[3,4-d]pyridazin-1-one]
3 | 70 | CC(C)Cc1nn(C)c(=O)c2c(-c3csc(C(C)O)c3)n(Cc3cccc4ccccc34)cc12 (stereo not shown) [Example 33, 7-(5-(1-hydroxyethyl)thiophen-3-yl)-4-isobutyl-2-methyl-6-(naphthalen-1-ylmethyl)-2,6-dihydro-1H-pyrrolo[3,4-d]pyridazin-1-one]
4 | 1000 | CC(C)Cc1nn(C)c(=O)c2c(-c3cccc(C(C)O)n3)n(Cc3cccc4ccccc34)cc12 (stereo not shown) [Example 34, 7-(6-(1-hydroxyethyl)pyridin-2-yl)-4-isobutyl-2-methyl-6-(naphthalen-1-ylmethyl)-2,6-dihydro-1H-pyrrolo[3,4-d]pyridazin-1-one]
5 | 80 | CC(C)Cc1nn(C)c(=O)c2c(-c3cc(C(C)O)ccc3F)n(Cc3cccc4ccccc34)cc12 (stereo not shown) [Example 35, 7-(2-fluoro-5-(1-hydroxyethyl)phenyl)-4-isobutyl-2-methyl-6-(naphthalen-1-ylmethyl)-2,6-dihydro-1H-pyrrolo[3,4-d]pyridazin-1-one]
6 | 100 | CC(C)Cc1nn(C)c(=O)c2c(-c3cccc(C(C)O)c3)n(Cc3cccc4ccccc34)cc12 (stereo not shown) [Example 36, 7-(3-(1-hydroxyethyl)phenyl)-4-isobutyl-2-methyl-6-(naphthalen-1-ylmethyl)-2,6-dihydro-1H-pyrrolo[3,4-d]pyridazin-1-one]
7 | 100 | CC(C)Cc1nn(C)c(=O)c2c(-c3csc(C(O)C(F)(F)F)n3)n(Cc3cccc4ccccc34)cc12 (stereo not shown) [Example 37, 4-isobutyl-2-methyl-6-(naphthalen-1-ylmethyl)-7-(2-(2,2,2-trifluoro-1-hydroxyethyl)thiazol-4-yl)-2,6-dihydro-1H-pyrrolo[3,4-d]pyridazin-1-one]
8 | ≤ 20 | CC(C)Cc1nn(C)c(=O)c2c(-c3csc(C(O)C(F)(F)F)c3)n(Cc3cccc4ccccc34)cc12 (stereo not shown) [Example 38, 4-isobutyl-2-methyl-6-(naphthalen-1-ylmethyl)-7-(5-(2,2,2-trifluoro-1-hydroxyethyl)thiophen-3-yl)-2,6-dihydro-1H-pyrrolo[3,4-d]pyridazin-1-one]
9 | 90 | CC(C)Cc1nn(C)c(=O)c2c(-c3ccc(C(O)C(F)(F)F)s3)n(Cc3cccc4ccccc34)cc12 (stereo not shown) [Example 39, 4-isobutyl-2-methyl-6-(naphthalen-1-ylmethyl)-7-(5-(2,2,2-trifluoro-1-hydroxyethyl)thiophen-2-yl)-2,6-dihydro-1H-pyrrolo[3,4-d]pyridazin-1-one]
10 | 50 | CC(C)Cc1nn(C)c(=O)c2c(-c3cccc(C(O)C(F)(F)F)c3)n(Cc3cccc4ccccc34)cc12 (stereo not shown) [Example 40, 4-isobutyl-2-methyl-6-(naphthalen-1-ylmethyl)-7-(3-(2,2,2-trifluoro-1-hydroxyethyl)phenyl)-2,6-dihydro-1H-pyrrolo[3,4-d]pyridazin-1-one]
11 | 800 | CC(C)Cc1nn(C)c(=O)c2c(-c3cc(CO)ccc3F)n(Cc3ccc(-c4ccccc4)cc3)cc12 [Example 41, 6-([1,1′-biphenyl]-4-ylmethyl)-7-(2-fluoro-5-(hydroxymethyl)phenyl)-4-isobutyl-2-methyl-2,6-dihydro-1H-pyrrolo[3,4-d]pyridazin-1-one]
12 | 1000 to 10000 | CC(C)Cc1nn(C)c(=O)c2c(-c3cccc(C(C)O)c3)n(Cc3ccc(-c4ccccc4)cc3)cc12 (stereo not shown) [Example 42, 6-([1,1′-biphenyl]-4-ylmethyl)-7-(3-(1-hydroxyethyl)phenyl)-4-isobutyl-2-methyl-2,6-dihydro-1H-pyrrolo[3,4-d]pyridazin-1-one]
13 | 500 | Cc1n[nH]c(C)c1Cn1cc2c(CC(C)C)nn(C)c(=O)c2c1-c1cccc(CO)c1 [Example 43, 6-((3,5-dimethyl-1H-pyrazol-4-yl)methyl)-7-(3-(hydroxymethyl)phenyl)-4-isobutyl-2-methyl-2,6-dihydro-1H-pyrrolo[3,4-d]pyridazin-1-one]
14 | 200 | Cc1n[nH]c(C)c1Cn1cc2c(CC(C)C)nn(C)c(=O)c2c1-c1cc(CO)ccc1F [Example 44, 6-((3,5-dimethyl-1H-pyrazol-4-yl)methyl)-7-(2-fluoro-5-(hydroxymethyl)phenyl)-4-isobutyl-2-methyl-2,6-dihydro-1H-pyrrolo[3,4-d]pyridazin-1-one]
15 | ≤ 20 | Cc1n[nH]c(C)c1Cn1cc2c(CC(C)C)nn(C)c(=O)c2c1-c1cccc(C(O)C(F)(F)F)c1 (stereo not shown) [Example 45, 6-((3,5-dimethyl-1H-pyrazol-4-yl)methyl)-4-isobutyl-2-methyl-7-(3-(2,2,2-trifluoro-1-hydroxyethyl)phenyl)-2,6-dihydro-1H-pyrrolo[3,4-d]pyridazin-1-one]
16 | 1000 to 10000 | CC(C)Cc1nn(C)c(=O)c2c(-c3cccc(CO)c3)n(Cc3cc(Cl)nc4ccccc34)cc12 [Example 46, 6-((2-chloroquinolin-4-yl)methyl)-7-(3-(hydroxymethyl)phenyl)-4-isobutyl-2-methyl-2,6-dihydro-1H-pyrrolo[3,4-d]pyridazin-1-one]
17 | 1000 to 10000 | CC(C)Cc1nn(C)c(=O)c2c(-c3cccc(CO)c3)n(Cc3cnc(Cl)c4ccccc34)cc12 [Example 47, 6-((1-chloroisoquinolin-4-yl)methyl)-7-(3-(hydroxymethyl)phenyl)-4-isobutyl-2-methyl-2,6-dihydro-1H-pyrrolo[3,4-d]pyridazin-1-one]
18 | 1000 to 10000 | CC(C)Cc1nn(C)c(=O)c2c(-c3cccc(CO)c3)n(CCOc3ccccc3Cl)cc12 [Example 48, 6-(2-(2-chlorophenoxy)ethyl)-7-(3-(hydroxymethyl)phenyl)-4-isobutyl-2-methyl-2,6-dihydro-1H-pyrrolo[3,4-d]pyridazin-1-one]
19 | 1000 to 10000 | CC(C)Cc1nn(C)c(=O)c2c(-c3cccc(CO)c3)n(Cc3cc(NCCCCCN)nc4ccccc34)cc12 [Example 49, 6-((2-((5-aminopentyl)amino)quinolin-4-yl)methyl)-7-(3-(hydroxymethyl)phenyl)-4-isobutyl-2-methyl-2,6-dihydro-1H-pyrrolo[3,4-d]pyridazin-1-one]
